Results on one compound are retold here after patent publication US20220135667A1, “THERAPEUTIC COMBINATIONS AND COMPOSITIONS FOR THE TREATMENT OF INFLAMMATORY BOWEL DISEASE (II)” (RIJSUNIVERSITEIT GRONINGEN, priority 2019, published 2022).

This experiment concerns CD patients. Description: prospective clinical intervention study of riboflavin in CD patients. The format is in vivo, human. To be noted: 100 mg riboflavin daily for 3 weeks. How it is done:
In a prospective clinical intervention study, 70 CD patients were included and divided into two groups with (active) and without (quiescent) evidence of mucosal inflammation (defined by fecal calprotectin (FC) cut-off value: 200 μg/g). Patients received 100 mg riboflavin daily for 3 weeks. Clinical disease activity (Harvey-Bradshaw Index: HBI), inflammatory biomarkers (including interleukin 2) as well as fecal microbial composition (including pathogenic Enterobacteriaceae including E. coli) were analyzed before and after riboflavin intervention.

In the case of `Cc1cc2nc3c(=O)[nH]c(=O)nc-3n(C[C@H](O)[C@H](O)[C@H](O)CO)c2cc1C` [riboflavin], the fecal calprotectin result (patients with TNF-alpha inhibitor treatment (FIG. 4)) is reported as “further reduction”. In addition, the “proinflammatory cytokine IL2” value (patients with TNF-alpha inhibitor treatment (FIG. 5)) is recorded as “further reduction”. Besides, the “Enterobacteriaceae including E. coli (fecal microbial composition)” value (patients with TNF-alpha inhibitor treatment (FIG. 6)) is reported as “further reduction”. In addition, the “clinical disease activity (Harvey-Bradshaw Index: HBI)” value (patients with TNF-alpha inhibitor treatment, both active and quiescent disease, before vs after (FIG. 1-3)) is “further reduced”; the “clinical disease activity (Harvey-Bradshaw Index: HBI)” value (patients with mesalazine treatment (FIG. 1-3)) is recorded as “not the case (not as pronounced as)”.
